For 12 compounds, inhibition results are on record in ChEMBL document CHEMBL1134109, “Biological evaluation of hepatitis C virus helicase inhibitors” (Bioorg Med Chem Lett, 2001).

NS3 (Hepatitis C virus), sequence (A3EZJ3 as listed by the source): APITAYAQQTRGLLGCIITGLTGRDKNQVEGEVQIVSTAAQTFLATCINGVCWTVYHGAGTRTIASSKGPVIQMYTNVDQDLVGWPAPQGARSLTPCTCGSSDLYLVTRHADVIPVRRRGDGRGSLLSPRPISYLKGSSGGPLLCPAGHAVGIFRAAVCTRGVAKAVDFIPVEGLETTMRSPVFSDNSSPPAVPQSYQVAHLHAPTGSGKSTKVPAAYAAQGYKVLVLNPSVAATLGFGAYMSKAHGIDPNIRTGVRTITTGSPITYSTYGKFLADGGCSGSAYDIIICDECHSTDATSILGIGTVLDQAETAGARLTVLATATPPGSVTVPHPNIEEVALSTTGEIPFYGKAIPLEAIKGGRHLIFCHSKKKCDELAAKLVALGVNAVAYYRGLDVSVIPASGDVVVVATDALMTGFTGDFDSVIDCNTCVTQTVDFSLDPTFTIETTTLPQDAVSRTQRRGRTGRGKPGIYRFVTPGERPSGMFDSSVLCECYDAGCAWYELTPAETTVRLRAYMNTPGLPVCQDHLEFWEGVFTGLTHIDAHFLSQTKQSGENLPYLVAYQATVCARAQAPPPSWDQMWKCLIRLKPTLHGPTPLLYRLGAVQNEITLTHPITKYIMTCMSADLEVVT

The assay has as its target NS3 (Hepatitis C virus) (UniProt A3EZJ3). Nature of the assay: Inhibitory activity against hepatitis C virus helicase at 25 ug/mL. To be noted: Hepacivirus hominis.
In turn, `O=C(/C=C/C(=O)Nc1ccc(-c2nc3ccccc3[nH]2)cc1)Nc1ccc(-c2nc3ccccc3[nH]2)cc1` returned an inhibition of 75%.

`O=C(CCCCC(=O)Nc1ccc(-c2nc3ccccc3[nH]2)cc1)Nc1ccc(-c2nc3ccccc3[nH]2)cc1` yielded an inhibition of 75%. Regarding `O=C(NCCCCCCNC(=O)Nc1ccc(-c2nc3ccccc3[nH]2)cc1)Nc1ccc(-c2nc3ccccc3[nH]2)cc1`, the inhibition came to 28%. With `O=C(NCCCCNC(=O)Nc1ccc(-c2nc3ccccc3[nH]2)cc1)Nc1ccc(-c2nc3ccccc3[nH]2)cc1`, the inhibition came out at 20%. In turn, `O=C(CCCCC(=O)Nc1nccs1)Nc1nccs1` returned an inhibition of 10%. The same measure for `O=C(CCCCC(=O)Nc1nc2ccccc2[nH]1)Nc1nc2ccccc2[nH]1`: 6%; for `O=C(CCCCCCCC(=O)Nc1nc2ccccc2[nH]1)Nc1nc2ccccc2[nH]1`: 6%. `O=C(Nc1ccc(-c2nc3ccccc3[nH]2)cc1)c1ccc(C(=O)Nc2ccc(-c3nc4ccccc4[nH]3)cc2)cc1` showed an inhibition of 75%. In turn, `O=C(CCC(=O)Nc1nc2ccccc2[nH]1)Nc1nc2ccccc2[nH]1` had an inhibition of 6%. `O=C(CCCCCCC(=O)Nc1ccc(-c2nc3ccccc3[nH]2)cc1)Nc1ccc(-c2nc3ccccc3[nH]2)cc1` had an inhibition of 75%. The same measure for `O=C(CCCCCCC(=O)Nc1nc2ccccc2[nH]1)Nc1nc2ccccc2[nH]1`: 6%; for `Cc1ccc2nc(-c3ccc(NC(=O)CCC(=O)Nc4ccc(-c5nc6ccc(C)cc6s5)cc4)cc3)sc2c1`: 14%.
